Experimental data reported in US4873347A, “Process for the preparation of the demalonyl compound of macrolide lactones” (Hoechst Aktiengesellschaft, priority 1986, dated 1989).
Values after ≈ are worked out from the molar mass of the structure shown.

Assays:
Format in all cases: cell-based
[1] = system: Candida albicans; experiment: in vitro serial dilution test for antimycotic action (microtitration technique), yeast; conditions: read-out: Minimum inhibitory concentration for Candida albicans
Method: (§1) The in vitro tests for an antimycotic action are carried out in serial dilution tests on yeasts (Candida albicans) and molds (Aspergillus niger) [Material and Methods: Microtitration technique published in Mykosen 27, 14 (1984)].

[2] = system: Aspergillus niger; experiment: in vitro serial dilution test for antimycotic action (microtitration technique), mold; conditions: read-out: Minimum inhibitory concentration for Aspergillus niger
Method: as §1

[3] = system: yeasts (Candida albicans) and molds (Aspergillus niger); experiment: in vitro tests for an antimycotic action in serial dilution, overall result in words; conditions: compared with reference substance niphimycin
Method: as §1

| Compound | MIC [1] | MIC [2] | antimycotic properties [3] |
| --- | --- | --- | --- |
| CNC(=N)NCCCC=CCCCC(C)CC(C)C1OC(=O)C(C)C(O)C=CC(C)C(O)CC(O)C(C)C(O)CCC(C)C(O)CC2(O)OC(CC(OC(=O)CC(=O)O)CC(O)CC(O)C(C)C(O)C=CC=CC1C)CC(O)C2O (centres unmarked) [Niphimycin, reference compound] | 7.8 µg/mL (≈ 6.83 µM) | 3.9 µg/mL (≈ 3.41 µM) |  |
| CNC(=N)NCCCC=CCCCC(C)CC(C)C1OC(=O)C(C)C(O)C=CC(C)C(O)CC(O)C(C)C(O)CCC(C)C(O)CC2(O)OC(CC(O)CC(O)CC(O)C(C)C(O)C=CC=CC1C)CC(O)C2O (centres unmarked) [Demalonyl compound] | 3.9 µg/mL (≈ 3.69 µM) | 1.95 µg/mL (≈ 1.85 µM) | good antimycotic properties which are superior to those of the reference substance niphimycin |
